Patent publication USRE48461E1, “Modulation of androgen receptor expression” (Ionis Pharmaceuticals, Inc., priority 2012, dated 2021)
Oligonucleotides are written 5' to 3', each unit as a sugar letter and its base; * is a phosphorothioate linkage, no mark a phosphodiester; rarer units and linkages stand in square brackets, end groups in braces. Plain capitals give the bases only. e = 2'-O-(2-methoxyethyl) (MOE); k = constrained ethyl (cEt); [5mC] = 5-methylcytosine; d = 2'-deoxy (DNA)

How the values were obtained:
AR mRNA [1] = experiment: Antisense inhibition of human AR in HuVEC cells, single concentration (electroporation, qRT-PCR RTS3559); assay type: cell-based
Method in brief: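 HuVEC cells electroporated with antisense oligonucleotides at a single concentration. AR mRNA quantified by qRT-PCR using human primer-probe set RTS3559 and normalised to total RNA content by RIBOGREEN.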

AR mRNA [2] = experiment: Dose-dependent antisense inhibition of human AR in HuVEC cells (electroporation, qRT-PCR RTS3559, IC50); assay type: cell-based; settings: HuVEC
Method in brief: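 HuVEC cells dosed with antisense oligonucleotides by electroporation and treated approximately 16 hours. AR mRNA quantified by real-time qPCR with primer probe set RTS3559 and normalised to total RNA by RIBOGREEN; IC50 from dose-response.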

AR mRNA [3] = experiment: AR mRNA in LnCaP cells by free uptake (hAR_LTS00943); assay type: cell-based, human; settings: 24 hrs
Experimental: Cells were plated at a concentration of 4,000 cells/well in 96-well plates. ISIS oligonucleotides, specified in Table 68, were added individually at 0.02 μM, 0.10 μM, 0.50 μM, 2.50 μM, or 10.00 μM. After an incubation period of 24 hrs, mRNA levels were measured using primer probe set hAR_LTS00943.

[4] = Table 34, electroporation, approximately 16 hours
[5] = Table 30, electroporation, approximately 16 hours

Substance	percent inhibition of AR (AR mRNA [2]; 62.5 nM, ~16 h, Table 10) [%]	percent inhibition of AR (AR mRNA [2]; 125.0 nM, ~16 h, Table 10) [%]	percent inhibition of AR (AR mRNA [2]; 500.0 nM, ~16 h, Table 10) [%]	percent inhibition of AR (AR mRNA [2]; 1000.0 nM, ~16 h, Table 10) [%]	IC50 (AR mRNA [2]; ~16 h, Table 10) [nM]	Percent inhibition of AR mRNA (AR mRNA [3]; 0.02 μM) [%]	Percent inhibition of AR mRNA (AR mRNA [3]; 0.1 μM) [%]	Percent inhibition of AR mRNA (AR mRNA [3]; 0.5 μM) [%]	Percent inhibition of AR mRNA (AR mRNA [3]; 10 μM) [%]	other results
569227 (antisense eT*eG*kA*kT*kT*dT*dA*dA*dT*dG*dG*dT*kT*kG*k[5mC]*eA) [compound 569227]	8	40	51	73	388	0	0	4	55	% inhibition (AR mRNA [1]; 1,000 nM ASO, ~24 h, Table 13): 51%; percent inhibition of AR (AR mRNA [2]; 31.25 nM, ~16 h, Table 14): 13%; percent inhibition of AR (AR mRNA [2]; 62.5 nM, ~16 h, Table 14): 22%; percent inhibition of AR (AR mRNA [2]; 125.0 nM, ~16 h, Table 14): 45%; percent inhibition of AR (AR mRNA [2]; 500.0 nM, ~16 h, Table 14): 61%; percent inhibition of AR (AR mRNA [2]; 1000.0 nM, ~16 h, Table 14): 74%; IC50 (AR mRNA [2]; ~16 h, Table 14): 255 nM
579666 (antisense eT*kG*kA*eT*eT*kT*kA*dA*dT*dG*dG*dT*dT*dG*k[5mC]*kA) [compound 579666]	33	34	64	80	229	0	8	30	68	–
569221 (antisense eT*eG*kA*kT*kT*dT*dA*dA*dT*dG*dG*dT*dT*kG*k[5mC]*kA) [compound 569221]	–	–	–	–	–	18	31	49	91	percent inhibition of AR (AR mRNA [2]; 62.5 nM, ~16 h, Table 12): 12%; percent inhibition of AR (AR mRNA [2]; 125.0 nM, ~16 h, Table 12): 32%; percent inhibition of AR (AR mRNA [2]; 500.0 nM, ~16 h, Table 12): 57%; percent inhibition of AR (AR mRNA [2]; 1000.0 nM, ~16 h, Table 12): 73%; IC50 (AR mRNA [2]; ~16 h, Table 12): 294 nM
579667 (antisense eT*kT*kG*eA*eT*kT*kT*dA*dA*dT*dG*dG*dT*dT*kG*k[5mC]) [compound 579667]	30	29	36	76	411	0	0	8	40	–
584125 (kG*k[5mC]*k[5mC]*dA*dT*dG*dA*dG*dA*d[5mC]*dA*dG*d[5mC]*kT*kT*kT; antisense) [compound 584125]	–	–	–	–	–	–	–	–	–	% inhibition (AR mRNA [1]; Table 23, 500 nM oligonucleotide, electroporation, approximately 24 hours, relative to untreated control): 35%; percent inhibition of AR, 46.9 nM (AR mRNA [2]; [4]): 12%; percent inhibition of AR, 187.5 nM (AR mRNA [2]; [4]): 12%; percent inhibition of AR, 750.0 nM (AR mRNA [2]; [4]): 47%; percent inhibition of AR, 3000.0 nM (AR mRNA [2]; [4]): 76%; IC50 (AR mRNA [2]; [4]): 720 nM
549383 (k[5mC]*k[5mC]*kA*dA*dA*d[5mC]*dG*d[5mC]*dA*dT*dG*dT*d[5mC]*k[5mC]*k[5mC]*k[5mC]; antisense) [compound 549383]	–	–	–	–	–	–	–	–	–	% inhibition (AR mRNA [1]; 500 nM ASO, electroporation, ~24 h, Table 1): 88%; percent inhibition of AR (AR mRNA [2]; 55.6 nM, ~16 h, Table 3): 10%; percent inhibition of AR (AR mRNA [2]; 166.7 nM, ~16 h, Table 3): 34%; percent inhibition of AR (AR mRNA [2]; 500.0 nM, ~16 h, Table 3): 75%; percent inhibition of AR (AR mRNA [2]; 1500.0 nM, ~16 h, Table 3): 88%; IC50 (AR mRNA [2]; ~16 h, Table 3): 270 nM
583692 (antisense kG*kT*kG*dA*dT*dG*dA*dT*dG*d[5mC]*dG*dG*dT*kA*kG*kT) [compound 583692]	–	–	–	–	–	–	–	–	–	% inhibition (AR mRNA [1]; 500 nM ASO, ~24 h, Table 18): 41%; percent inhibition of AR, 46.9 nM (AR mRNA [2]; [5]): 8%; percent inhibition of AR, 187.5 nM (AR mRNA [2]; [5]): 47%; percent inhibition of AR, 750.0 nM (AR mRNA [2]; [5]): 61%; percent inhibition of AR, 3000.0 nM (AR mRNA [2]; [5]): 71%; IC50 (AR mRNA [2]; [5]): 440 nM
